One assay addresses T1, PD-1/PD-L1 (Homo sapiens, UniProt Q9NZQ7).
T1 construct: Recombinant human PD-L1 protein (19-238) with a Histag at the C-terminus; purchased AcroBiosystems PD1-H5229 (PD-L1); PD1-H5257 (PD-1)
In words: PD-1/PD-L1 Homogeneous Time-Resolved Fluorescence (HTRF) Binding Assay. Particulars: PD-1/PD-L1 HTRF activity; 3 nM PD1, 10 nM PD-L1, 25° C. A digest of the protocol: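 Human PD-L1 (19-238, His-tag) 10 nM and PD-1 (25-167, Fc-tag) 3 nM preincubated 40 min with inhibitor in PBS pH 7.4, 0.05% Tween-20, 0.1% BSA, 1% DMSO, 25 °C. Eu-anti-human IgG (1 nM) and anti-His-APC (20 nM) added, 60 min, 665/620 nm ratio; IC50 from percent control activity versus log concentration.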

The next assay concerns PDL1. In words: PDL1 Jurkat-NFAT Reporter Assay. In kind it is cell-based. Particulars: Homo sapiens; Hep3B-OS8-hPDL1 with Jurkat-NFAT-PD1 cells, 6 hours, luciferase. How it is done:
Example 109. PDL1 Jurkat-NFAT Reporter Assay
Preparation of Hep3B-OS8-hPDL1
(§1) 1. Hep3B-OS8-hPDL1 cells were cultured in 1640 medium supplemented with 10% fetal bovine serum, 1% penicillin and streptomycin, in which 100 μg/mL G418 and Hygromycin B were also added.
2. Cells were re-suspended with RPMI 1640 medium containing 10% FBS and the cell density was adjusted to 1.25×10^5 cells/mL.
3. Cells were seeded into 96-well flat bottom plate (1.25×10^4 cells/100 μL/well).
b. Compounds solutions preparation
4. Removed the medium from pre-plated Hep3B-OS8-PDL1 cells. Washed once with 200 μL Assay Medium.
5. Prepared the Compounds dilutions in RPMI 1640 medium with 10% FBS according to the Layout.
6. Added compounds into each well in a volume of 50 μL in 9 concentrations ([…])}. Keytruda will be included as positive control at the concentration of 5 μg/mL.
7. Incubated for 20-30 min at 37° C., 5% CO2.
c. Preparation of Jurkat-NFAT-PD1
8. Jurkat-NFAT-PD1 cells were cultured in 1640 medium supplemented with 10% fetal bovine serum, 1% penicillin and streptomycin, in which 1000 μg/mL Hygromycin B and […] puromycin were also added.
9. On the second day of assay, the cells were re-suspended with RPMI 1640 medium containing 10% FBS and the cell density was adjusted to 2.5×10^5 cells/mL.
10. […]

The target in assay [1] is T2, extracellular domains of PD-L1 (Homo sapiens, UniProt Q9NZQ7).
T2 construct: specifically dimerize the extracellular domains of PD-L1
T2 sequence (Q9NZQ7 19-238 limits assumed): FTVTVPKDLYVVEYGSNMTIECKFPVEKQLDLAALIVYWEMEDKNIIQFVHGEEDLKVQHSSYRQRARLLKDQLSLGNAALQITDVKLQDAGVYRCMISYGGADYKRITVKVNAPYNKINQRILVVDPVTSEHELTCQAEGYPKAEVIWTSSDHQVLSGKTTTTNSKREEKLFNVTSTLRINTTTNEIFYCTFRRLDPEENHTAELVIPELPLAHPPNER
In words: PD-L1 Dimerization. In kind it is biochemical. Particulars: PD-L1-Eu and PD-L1-A2, ratio 665 nm/615 nm. As to the method: Example 108. PD-L1 Dimerization
Compounds were tested in biochemical protein-protein interaction assays to determine if they can specifically dimerize the extracellular domains of PD-L1. • (1) Diluted cpd 1:3 in succession in DMSO for each column for 10 samples • (2) Transferred 0.2 μL cpds solution in each row to 384 assay plate using Echo, each column containing 2 replicates • (3) Added 20 μL prepared mixture include PD-L1-Eu and PD-L1-A2 solution to assay plate, centrifuged at 1000 rpm for 1 min. • (4) Incubated at 25° C. for […]. • (5) Read fluorescence signal on Envision 2104 plate reader. • (6) Read the Ratio (665 nm/615 nm) signal on Envision. • (7) Analyzed the raw data using the equation (V. Data analysis)

The subject of assay [2] is Hep3B-OS8-hPDL1 and T cells. Description: Hep3B-OS8-hPDL1 and T Cells Co-Culture Assay (IFN-γ by ELISA). Particulars: T-cell, Hep3B-OS8-hPDL1 and human CD3+ T cells, 72 hours, read-out: Tumor and T Cell EC50. Format: cell-based. How it is done: Example 110. Hep3B-OS8-hPDL1 and T Cells Co-Culture Assay
as §1
2. Hep3B-OS8-hPDL1 cells were harvested and treated with 10 μg/mL mitomycin C at 37° C. for 1.5 h, and the cells were then washed thoroughly with PBS for four times.
3. Cells were re-suspended with RPMI 1640 medium containing 10% FBS and the cell density was adjusted to 5×10^5 cells/mL.
4. Cells were seeded into 96-well flat bottom plate (2.5×10^4 cells/50 μL/well).
b. CD3+ T cells isolation (30 mL blood)
5. The human blood sample from an individual donor was diluted by the same volume of sterile PBS, for instance add 25 mL sterile PBS into 25 mL fresh whole blood and mix sufficiently by gentle shake.
6. Transferred 15 mL Lymphoprep medium into a new 50 mL centrifuge tube.
7. Added the diluted blood sample as soft as possible onto the surface of the Ficoll medium to make sure there is a clear dividing line between the two liquids, and the volume ratio between Ficoll and diluted blood (30 mL) is 1:2.
8. Moved the tube gently to centrifuge, at 1000×g, 25 min, 20° C., with the acceleration (5) and Min deceleration (0) settings during the centrifugation.
9. Four interfaces in all could be observed after the centrifugation, which are layers of plasma, mononuclear cells, the Ficoll medium and RBCs from top to bottom, and move the tube as gently as possible so as keep the four interfaces separated. Absorbed and transferred the second layer of mononuclear cells into another new sterile centrifuge tube carefully, and absorbed certain volume of plasma instead of the Ficoll medium if inevitable.
10. Added sterile PBS of the three times the volume of PBMCs in the tube with PBMC.
11. Washed the cells twice with 5-10 mL PBS before cell counting with cytometer. Centrifuge at 350×g, 10 min, 20° C. With the acceleration (5) and deceleration (5) settings during the centrifugation.
12. Resuspended the cells with recommended medium and adjust the density of the PBMCs to the final concentration of 5×10^7 cells/mL.
13. Isolated CD3+ T cells with EasySep™ Human T Cell Isolation Kit (STEMCELL Technologies #17951), and the cells were seeded into 96-well flat bottom plate (5×10^4 cells/100 μL/well). c. Compounds solutions preparation
14. Prepared the Compounds dilutions in RPMI 1640 medium with 10% FBS according to the Layout. 15. Added compounds into each well in a volume of 50 μL. {3 compounds (GLC01-258, GLC01-269, GLC01-465) in 7 concentrations (0.03, 0.1, 0.3, 1, 3, 10 and 30 μM) and 6 compounds (GLC01-411, GLC01-292, GLC01-445, GLC01-475, GLC01-470 and GLC01-468) in the same concentration (1 μM)}.
16. Keytruda was included as positive control, the concentration was 5 μg/mL. 17. Incubated for 72 hours at 37° C., 5% CO2.
18. Collected supernatant by centrifugation and measure IFN-γ by ELISA.
For orientation: An ELISA detects its analyte on a solid surface through an enzyme-linked reagent.

One may read the IC50 as the concentration needed to halve the response being measured. A high value points to weaker potency. As a reminder, the EC50 is the concentration that produces a half-maximal response.

T1 sequence (Q9NZQ7 19-238): as the sequence (Q9NZQ7 19-238 limits assumed) above

At PD-1/PD-L1, `O=C1CC[C@@H](Cn2cnn3cc(-c4cccc(-c5cccc(-c6cc7c(=O)n(C[C@@H]8CCC(=O)N8)cnn7c6)c5Cl)c4Cl)cc3c2=O)N1` [Compound 1, 6,6′-(2,2′-dichloro-[1,1′-biphenyl]-3,3′-diyl)bis(3-((5-oxopyrrolidin-2-yl)methyl)pyrrolo[2,1-f][1,2,4]triazin-4(3H)-one)] displayed an IC50 of less than 10 nM. Also, the EC50 in the assay on PDL1 is less than 500 nM.

Compound `Cc1cn2nc(-c3cccc(-c4cccc(-c5cc6c(=O)n(CCNCCO)c(C)cn6n5)c4Cl)c3Cl)cc2c(=O)n1CCNCCO` [Compound 52, 2,2′-(2,2′-dichloro-[1,1′-biphenyl]-3,3′-diyl)bis(5-(2-((2-hydroxyethyl)amino)ethyl)-6-methylpyrazolo[1,5-a]pyrazin-4(5H)-one)] registered an IC50 on PD-1/PD-L1 of less than 10 nM. Further, the values for the concentration for a half-maximal effect (EC50) in assay [1] and in assay [2] were less than 50 nM and 50 to 100 nM, respectively.

On to `Cc1cn2nc(-c3cccc(-c4cccc(-c5cc6c(=O)n(CCN[C@@H](CO)C(=O)O)c(C)cn6n5)c4Cl)c3Cl)cc2c(=O)n1CCN[C@@H](CO)C(=O)O` [Compound 57, (2S,2'S)-2,2′-((((2,2′-dichloro-[1,1′-biphenyl]-3,3′-diyl)bis(6-methyl-4-oxopyrazolo[1,5-a]pyrazine-2,5(4H)-diyl))bis(ethane-2,1-diyl))bis(azanediyl))bis(3-hydroxypropanoic acid)], for which the IC50 on PD-1/PD-L1 was less than 10 nM. Also, the results for the 50% effective concentration (EC50) in assay [1] and in assay [2] were 50 to 100 nM and less than 50 nM, respectively.

For the compound `Cc1cn2cc(-c3cccc(-c4cccc(-c5cc6c(=O)n(CCN[C@@H](CO)C(=O)O)c(C)cn6c5)c4Cl)c3Cl)cc2c(=O)n1CCN[C@@H](CO)C(=O)O` [Compound 63, (2S,2'S)-2,2′-((((2,2′-dichloro-[1,1′-biphenyl]-3,3′-diyl)bis(3-methyl-1-oxopyrrolo[1,2-a]pyrazine-7,2(1H)-diyl))bis(ethane-2,1-diyl))bis(azanediyl))bis(3-hydroxypropanoic acid)], the IC50 at PD-1/PD-L1 was less than 10 nM. The EC50 in assay [1] was 50 to 100 nM; in assay [2], no less than 100 nM.

In the case of `Cn1c(CNC[C@@H]2CCC(=O)N2)cn2cc(-c3cccc(-c4cccc(-c5cc6c(=O)n(C)c(CNC[C@@H]7CCC(=O)N7)cn6c5)c4Cl)c3Cl)cc2c1=O` [Compound 74, 7,7′-(2,2′-dichloro-[1,1′-biphenyl]-3,3′-diyl)bis(2-methyl-3-(((((S)-5-oxopyrrolidin-2-yl)methyl)amino)methyl)pyrrolo[1,2-a]pyrazin-1(2H)-one)], the IC50 at PD-1/PD-L1 lay within 10 to 100 nM. Also, the concentration for a half-maximal effect (EC50) with PDL1 is no less than 500 nM.

The compound `Cn1c(C[C@@H]2CCCN2)nn2cc(-c3cccc(-c4cccc(-c5cc6c(=O)n(C)c(C[C@@H]7CCCN7)nn6c5)c4Cl)c3Cl)cc2c1=O` [Compound 76, 6,6′-(2,2′-dichloro-[1,1′-biphenyl]-3,3′-diyl)bis(3-methyl-2-(((S)-pyrrolidin-2-yl)methyl)pyrrolo[2,1-f][1,2,4]triazin-4(3H)-one)] registered a 50% inhibitory concentration (IC50) at PD-1/PD-L1 of 10 to 100 nM. The EC50 in assay [1] is less than 50 nM; in assay [2], 50 to 100 nM.

On PD-1/PD-L1, `Cc1cn2nc(-c3cccc(-c4cccc(-c5cc6c(=O)n(CCNC7(C(=O)O)CC(O)C7)c(C)cn6n5)c4Cl)c3Cl)cc2c(=O)n1CCNC1(C(=O)O)CC(O)C1` (stereo not shown) [Compound 85] had a 50% inhibitory concentration (IC50) of 10 to 100 nM. Besides, the EC50 in assay [1] was 50 to 100 nM; in assay [2], less than 50 nM.

(Values after patent publication US20260248783A1 (ASCLETIS BIOSCIENCE CO., LTD., priority 2021, published 2026).)
